Measurements reported in a melting point compilation (Tetko et al.; mined from patent text by program, amines drawn as free bases though some values may be those of a salt).

melting point | Compound
163 to 165 °C | CN1CCN(C2CCN(c3ncc4ncnc(Nc5ccc(F)c(Cl)c5)c4n3)CC2)CC1
355 to 357 °C | NC(=O)c1nc(-c2cccc(O)c2)nc2c1[nH]c(=O)n2[C@H]1CC[C@H](O)CC1
115 to 117 °C | CCOC(=O)C1=C(C)NC(CSc2ncccn2)=C(C(=O)OCC)C1c1cccc([N+](=O)[O-])c1 (stereo not given)
268 to 270 °C | COc1cc(F)c(C(=O)Oc2ccc(C(=O)O)cc2)cc1C12CC3CC(CC(C3)C1)C2
179 to 181 °C | CCCc1[nH]c2cc(C(N)=O)ccc2c1C(=O)C=C(C)C
110 to 112 °C | CC(=O)ON1C(C)(C)CC(OC(=O)c2ccccc2)CC1(C)C
204 to 206 °C | CCCc1c(C(=O)NCc2ccc(-c3ccc(OCC(=O)O)c(Br)c3)cc2)cnn1-c1ccccc1
154 °C | CN(C)C=Nc1ccc(-c2ccc(C(F)(F)F)cc2)cn1
193 to 194 °C | Cc1c(C(=O)Nc2ccc(N3CCC(N4CCOCC4)CC3)c(C(F)(F)F)c2)cnn1-c1ccc(Cl)cc1
142 to 144 °C | CCC(=O)Nc1ccc(Cl)c(-n2nc(CC)n(Cc3ccc(-c4ccccc4S(=O)(=O)NC(=O)OC(C)(C)C)cc3F)c2=O)c1
227 to 229 °C | CC(C)Oc1ccc(-c2nn(C(C)c3oc4cccc(N5CCOCC5)c4c(=O)c3-c3cccc(F)c3)c3ncnc(N)c23)cc1F (stereo not given)
114 to 115 °C | CCc1nc2c(C)cc(C)nc2n1Cc1ccc2c(c1)CCc1ccccc1N2CC(=O)O
116 °C | CC(=O)OC1CSC(Oc2cccc(-c3cccnc3F)c2)C(OC(C)=O)C1OC(C)=O (stereo not given)
98 to 120 °C | CCCC(=O)OCC(=O)C1(OC(C)=O)CCC2C3CC(C)C4=CC(=O)CCC4(C)C3C(O)CC21C (stereo not given)
142 to 143 °C | COC(=O)C1=Cc2cc(-c3ccc(OC(F)(F)F)cc3)ccc2S(=O)(=O)CC1
59 to 61 °C | COC(=O)c1c(OCc2ccccc2)ccc2c1CCCC2
212 to 215 °C | CC(=O)NC(CC(=O)c1cc(Cl)ccc1N)C(=O)NC(CO)c1ccccc1 (stereo not given)
104 to 105 °C | CC(=O)c1ccc(-c2cccnc2)s1
196 °C | CC(=O)OC1CSC(Oc2cncc(-c3ccc(N4CCCCC4)cc3)c2)C(OC(C)=O)C1OC(C)=O (stereo not given)

melting point | Compound
139 °C | CCCCN(C(=O)CNC(=O)c1cc2ccccc2n1CC(=O)OC)c1c(OC)cc(C)cc1OC
239 °C | Cn1ncc(N2CCCC2)c(-c2ccccc2C=NO)c1=O
159 °C | COc1cc2c(Cl)nc(-c3ccc(Cl)cc3)nc2c(OC)c1OC
288 to 289 °C | O=C(O)C1=Cc2cc(Cl)c(Oc3cccc(C(=O)O)c3)cc2OC1C(F)(F)F (stereo not given)
224 to 225 °C | O=C(O)C=CC(=O)Nc1ccc2ncnc(Nc3cccc(Br)c3)c2c1
120 to 121 °C | COC(=O)CNC(=O)COc1ccc(C(C)=O)cc1
189 to 191 °C | O=C1NNC(c2ccc3c(c2)CC2(CCN(C4CCC4)CC2)O3)C2C=C12 (stereo not given)
162 to 164 °C | O=C(c1ccccc1)N1CCC(CN2CCc3c([nH]c4ccccc34)C2)CC1
103 to 106 °C | CN(Cc1ccccc1)c1ncnc2c(N3CCOCC3)nc(N3CCC(NCc4ccccc4)CC3)nc12
163 to 166 °C | CC(C)OC(=O)N1CCC(c2ccc3nc(-c4ccc(S(C)(=O)=O)cc4F)sc3c2)CC1
128 to 131 °C | O=C(Cn1nc(C(F)(F)F)cc1Cl)N1CCC(c2nc(C3=NOC(c4ccccc4)C3)cs2)CC1 (stereo not given)
195 to 197 °C | CCN1CC(=O)N(CC)c2cc(Nc3ncc(Cl)c(Nc4ccccc4S(=O)(=O)N(C)C)n3)c(OC)cc2C1
93 to 94 °C | COC(=O)c1ccc(CCC(=O)/C=C/c2ccc(O)c(OC)c2)o1
132 to 133 °C | COc1cc(OC)cc(C(Cc2ccc(OC)c(OC)c2)=NNS(=O)(=O)c2ccc(C)cc2)c1
128 to 129 °C | COc1ccc(-c2cc(=O)n(C(C)C)nc2-c2ccc(OC)cc2)cc1
119 to 126 °C | COc1cc(C(=O)NS(=O)(=O)c2ccccc2C)ccc1Cc1cn(C)c2ccc(CC(C)C(=O)NCC3CCCC3)cc12 (stereo not given)
113 to 114 °C | COc1ccc([C@@H]2Sc3ccccc3N(CCN(C)C)C(=O)[C@@H]2OC(=O)c2ccc([N+](=O)[O-])cc2)cc1
224 to 226 °C | CC(C(=O)O)c1ccc(N2C(=O)C3CCCCC3C2=O)cc1 (stereo not given)

The next lines start with the compound.

Compound | melting point
COc1ccc2[nH]c(C(C)C)c(C=O)c2c1 | 181 to 183 °C
COc1ccc2cccc(C#N)c2c1 | 62 to 66 °C
CN(C)C=C1CN=C(c2ccccc2Cl)c2cc(Cl)ccc2C1=O | 170 to 171 °C
CCCCNC(=NC#N)Nc1ccc(C2=NNC(=O)CC2C)cc1 (stereo not given) | 184 to 186 °C
OCc1cc2c(cn1)[nH]c1ccccc12 | 228 to 230 °C
CC1(C)OCCCOc2c[nH]cc2OCCCOC1(C)C | 48 to 50 °C
CS(=O)(=O)c1cccc(NC(=O)c2cnn3c(C(F)(F)F)cc(-c4ccc(C(F)(F)F)c(OCC(F)(F)F)c4)nc23)c1 | 227 °C
CCc1nc2c(N)nc3cccnc3c2n1CC1(O)CCN(C(=O)OC(C)(C)C)CC1 | 233 to 235 °C
CCOC(=O)C1=C(C)Nc2ccnc(OC(C)C)c2C1c1cccc(C(F)(F)F)c1 (stereo not given) | 130 to 131 °C
COCC1CC(=O)c2nc(C)c(C)n2C1 (stereo not given) | 103 to 104 °C
OC(c1ccccc1)c1ccc2c(c1)N1CCN=C1S2 (stereo not given) | 175 °C
CNC(=O)CC1=CSC2=C(C(=O)OC(C)C)C(C)CN12 (stereo not given) | 203 to 205 °C
N#Cc1cc2ccccc2cc1O | 188 to 189 °C
CCN(CC)C(=O)COC(=O)CCc1cc(S(C)(=O)=O)cc(-c2nc(=O)c3ccc(Cl)cc3s2)n1 | 179 to 180 °C
CC(C)(C)[Si](C)(C)O[C@H]1CCNC1=O | 48 to 49 °C
CCN(CC)CCn1c(=O)c2cnc3c(cnn3CC)c2n2nc(C)cc12 | 90 to 92 °C
O=C1NC2C3C=CC(C3)C12 (stereo not given) | 94 to 97 °C
Cc1cccc2nc3n(c(=O)c12)-c1ccccc1C3=O | 304 to 307 °C
O=C1c2ccccc2S(=O)(=O)N1CCCOc1ccccc1 | 83 to 86 °C
OCc1c[nH]c2c1ccc1c3ccccc3[nH]c12 | > 295 °C

Compound | melting point
COc1cc2cc(CO)nc(-c3cccc(Cl)c3)c2cc1OC | 118 to 120 °C
CC(C)(C)n1ncc(S)c(Br)c1=O | 107 to 110 °C
CC(=O)c1cccc2c(=O)c(C)c(-c3ccccc3)oc12 | 159 to 161 °C
COC(=O)N1C(C)=NC(C)=C(C(=O)NCCCN2CCC(C(=O)OC)(c3ccccc3)CC2)C1c1ccc(F)c(F)c1 (stereo not given) | 55 to 57 °C
CCOC(=O)COc1cccc2nc3c(c(N)c12)CCCC3 | 141 to 142 °C
CN1CCN(c2ccc(NC(=O)C3(C)CC3)cc2C(F)(F)F)C1=O | 90 to 91 °C
O=C(O)c1cc2ccccc2n1Cc1cccc(Cl)c1 | 188 to 189 °C
NC1=NCC(NC=O)(N[C@@H]2CC=C(CO)C2)C(Cl)=N1 (stereo not given in full) | 148 to 150 °C
O=C(O)Cn1cccc(NS(=O)(=O)Cc2ccccc2)c1=O | 186 to 187 °C
Fc1cccc(F)c1Cn1c(-c2c(F)cccc2F)nc2c(CCl)cccc21 | 143 to 144 °C
CCOC(=O)C(C(=O)Nc1nccs1)C(=O)c1cccc(C(F)(F)F)c1NC(=O)C(Cl)C(C)(C)C (stereo not given) | 180 °C
CN(C)c1ccc(C2(c3ccc(N(C)C)cc3N(C)C)OC(=O)c3c(Cl)c(Cl)c(Cl)c(Cl)c32)cc1 (stereo not given) | 227 to 229 °C
CCSc1cc(C)nc(SCC)c1NC(=O)CN1CCN(CCSc2nc3cccc([N+](=O)[O-])c3o2)CC1 | 50 to 52 °C
CCC(C(=O)Nc1ccc2cc[nH]c2c1)c1ccccc1 (stereo not given) | 143 to 144 °C
COc1ccc(-c2c(-c3ccccc3)nc3n2Cc2ccccc2C3)cc1 | 183 to 185 °C
COCCNC(=O)Cn1nc(-c2ccccc2O)nc1-c1ccccc1O | 184 to 186 °C
CS(=O)(=O)c1nc(N)c2ncn(C3CCCCC3)c2n1 | 272 to 274 °C
O=C(NC(CC12CC3CC(CC(C3)C1)C2)NC(=N[N+](=O)[O-])Nc1cccnc1)c1ccc(Cl)cc1 (stereo not given) | 219 to 220 °C
Oc1cccc(C#Cc2ccc3ccc(Br)cc3n2)c1 | 197 to 199 °C
OCCCCCCCCCCCOc1ccc(O)cc1 | 99 to 100 °C

Compound | melting point
CCn1ccc(Nc2cc(-c3cccc(N4Cc5cc(C(C)(C)C)ccc5C4=O)c3CO)cn(C)c2=O)n1 | 175 to 177 °C
CCOCOC(CCC(C(=O)NC)C(C)C(O)c1ccccc1)c1ccc(F)cc1 (stereo not given) | 91 to 92 °C
O=c1[nH]c2ccccc2cc1CC1CCc2ccccc2N1 (stereo not given) | 196 to 199 °C
CCCCCC(C)C(C)c1cc(O)c2c(c1)OC(C)(C)C1=C2CN(CC(=O)NC(=O)Nc2ccccc2)CC1 (stereo not given) | 159 to 161 °C
COc1ccc(CNCCCOc2ccc(NC(=O)c3cccc4c(=O)c5ccccc5[nH]c34)cc2)cc1OC | 138 to 139 °C
Cc1oc(-c2ccccc2)nc1CCC(=O)c1ccc(CCC2OCCO2)cc1 | 89 to 90 °C
O=[N+]([O-])CC1C2(CCCC1(c1ccccc1)c1ccccc1)OCCO2 (racemic) | 148 °C
C=CC1CCCC(=O)N1Cc1ccccc1Cl (stereo not given) | 37 to 39 °C
Cc1cnc(NC(=O)C(c2ccccc2)c2ccccc2)o1 | 166 to 168 °C
CN(c1ccc(Br)cc1)S(=O)(=O)c1cccc(C(=O)Nc2ccc(Cl)cc2F)c1 | 117 to 118 °C
CCCC(=O)c1nc(CCC)[nH]c1C#N | 94 to 95 °C
c1cncc(Nn2ccc3ccccc32)c1 | 127 to 128 °C
CC(C)(CO)C[C@H]1COC(C)(C)N1C(=O)OC(C)(C)C | 45 to 46 °C
CCCCc1nc(Cl)c(CC(=O)O)n1Cc1ccc([N+](=O)[O-])cc1 | 207 to 210 °C
CCCC(=O)c1cnc2c(C)cccc2c1Nc1ccccc1Cl | 130 to 131 °C
N=C(N)Nc1nc(CSCCNC=NS(=O)(=O)c2ccc(Br)cc2)cs1 | 142 to 146 °C
NC(=O)c1sc(-n2cnc3cnccc32)cc1OCc1ccccc1C(F)(F)F | 226 to 227 °C
CC1(C)CCC2=C(O1)c1ccccc1C(=O)C2=O | 154 to 156 °C
